Patent US20230203058A1, “MACROCYCLIC DIAMINE DERIVATIVES AS ENT INHIBITORS FOR THE TREATMENT OF CANCERS, AND COMBINATION THEREOF WITH ADENOSINE RECEPTOR ANTAGONISTS” (ITEOS BELGIUM SA, priority 2020, published 2023)

These compounds were tested against T1, human ENT1 (Homo sapiens, UniProt Q99808) (assay: ENT1 binding assay (competition with Sahenta-DY647 on JAR cells)). Settings: competition with Sahenta-DY647 100 nM, 4° C.
T1 sequence (Q99808 1-456): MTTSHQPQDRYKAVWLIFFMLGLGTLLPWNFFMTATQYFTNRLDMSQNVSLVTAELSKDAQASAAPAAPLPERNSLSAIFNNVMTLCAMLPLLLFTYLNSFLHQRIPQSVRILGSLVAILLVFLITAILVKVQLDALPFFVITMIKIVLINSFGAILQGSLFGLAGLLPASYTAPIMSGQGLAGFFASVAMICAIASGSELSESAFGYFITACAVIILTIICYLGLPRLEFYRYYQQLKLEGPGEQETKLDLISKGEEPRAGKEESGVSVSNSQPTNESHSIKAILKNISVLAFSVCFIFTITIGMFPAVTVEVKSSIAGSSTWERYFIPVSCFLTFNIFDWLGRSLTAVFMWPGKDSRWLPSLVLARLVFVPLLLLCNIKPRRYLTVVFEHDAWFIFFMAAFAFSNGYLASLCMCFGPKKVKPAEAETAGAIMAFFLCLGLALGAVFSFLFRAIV
Parameters: JAR cells expressing ENT1 were bought from ATCC® (HTB-144TM); host or cells: JAR cells (human choriocarcinoma line; whole cells)
Experimental: The present assay aims at showing that the compounds of the present invention can bind to human ENT1. The principle of the assay is a competition between the compounds of this invention and Sahenta-DY647, an ENT1 inhibitor that emits fluorescence (Ex = 630 nm, Em = 670 nm). By measuring the fluorescence at the end of the assay we could assess the binding potency of the compounds of the present invention.
JAR cells expressing ENT1 were bought from ATCC® (HTB-144TM). Cells were cultured in RPMI 1640 medium (LONZA®, #BE12-702F/U1) supplemented with 10% FBS (GIBCO®, #10270-106), 10 mM Hepes (LONZA®, #BE17-737E), 1 mM Sodium Pyruvate (LONZA®, #BE13-115E) and 2% Penicillin/Streptomycin (LONZA®, #DE17-603E) at 37° C. and 5% CO2. The assay was conducted on the following buffer: HBSS (LONZA®, #LO-527F) supplemented with 10 mM Hepes (LONZA®, #BE17-737E) and 0.1% BSA (Miltenyi®, #130-091-376) on the day of the assay. JAR cells were resuspended in the described buffer. Compounds of the present invention and Sahenta-DY647 were diluted 200X in the described buffer.
A total of 50000 cells were pre-incubated for 30 min at 4° C. with the compounds of the present invention before adding the corresponded IC90 of Sahenta-DY647 (100 nM) and incubate once more for 30 min at 4° C. The total volume of the reaction was 100 µL (50 µL of cells, 25 µL of the compounds of the present invention and 25 µL of Sahenta-DY647) in a 96 well plate, U-bottom (Greiner®, #650-180). The plates were washed 2X by centrifugation (4 min, 400 rcf at 4° C.) in the same buffer. Cells were resuspended in 70 µL of the buffer and 50 µL was transferred to a Black 384 Optiplate (PerkinElmer®, #6007279). Fluorescence (Ex = 630 nm, Em = 670 nm) was acquired on a Spectramax i3x (Molecular Devices®).

IC50	SMILES
20 to 500 nM	COc1cc2cc(c1OC)OCCCC(OC(=O)c1ccc(Cl)c(Cl)c1)CCN1CCCN(CCCOC2=O)CC1 (stereo not drawn) [Compound 24, 74,75-dimethoxy-6-oxo-5,8-dioxa-1(1,4)-diazepana-7(1,3)-benzenacyclotetradecaphane-12-yl 3,4-dichlorobenzoate]
20 to 500 nM	COc1cc2cc(c1OC)OCCCC(OC(=O)c1ccc(OC(F)(F)F)cc1)CCN1CCCN(CCCOC2=O)CC1 (stereo not drawn) [Compound 30, 74,75-dimethoxy-6-oxo-5,8-dioxa-1(1,4)-diazepana-7(1,3)-benzenacyclotetradecaphane-12-yl 4-(trifluoromethoxy)benzoate]
1 to 20 nM	COc1cc2cc(c1OC)OCCCC(OC(=O)c1ccc(C#N)c(F)c1)CCN1CCCN(CCCOC2=O)CC1 (stereo not drawn) [Compound 82, 74,75-dimethoxy-6-oxo-5,8-dioxa-1(1,4)-diazepana-7(1,3)-benzenacyclotetradecaphane-12-yl 4-cyano-3-fluorobenzoate]
> 500 nM	COc1cc2cc(c1OC)OCCCC(OC(=O)C1CCN(C)CC1)CCN1CCCN(CCCOC2=O)CC1 (stereo not drawn) [Compound 64, 74,75-dimethoxy-6-oxo-5,8-dioxa-1(1,4)-diazepana-7(1,3)-benzenacyclotetradecaphane-12-yl 1-methylpiperidine-4-carboxylate]
1 to 20 nM	COc1cc2cc(c1OC)OCCCC(OC(=O)c1ccc(O)cc1)CCN1CCCN(CCCOC2=O)CC1 (stereo not drawn) [Compound 41, 74,75-dimethoxy-6-oxo-5,8-dioxa-1(1,4)-diazepana-7(1,3)-benzenacyclotetradecaphane-12-yl 4-hydroxybenzoate]
1 to 20 nM	COc1cc2cc(c1OC)OCCC[C@@H](OC(=O)c1ccccc1)CCN(C)CCN(C)CCCOC2=O [Compound 35, (R)-15,16-dimethoxy-9,12-dimethyl-17-oxo-2,16-dioxa-9,12-diaza-1(1,3)-benzenacycloheptadecaphane-6-yl benzoate]
1 to 20 nM	COc1cc2cc(c1OC)OCCCC(OC(=O)C1CCC(F)(F)CC1)CCN1CCCN(CCCOC2=O)CC1 (stereo not drawn) [Compound 105, 74,75-dimethoxy-6-oxo-5,8-dioxa-1(1,4)-diazepana-7(1,3)-benzenacyclotetradecaphane-12-yl 4,4-difluorocyclohexane-1-carboxylate]
1 to 20 nM	COc1cc(C(=O)O[C@@H]2CCCOc3cc(cc(Cl)c3C(N)=O)C(=O)NCCCN3CCCN(CC2)CC3)cc(OC)c1OC [Compound 28, (12R)-74-carbamoyl-75-chloro-6-oxo-8-oxa-5-aza-1(1,4)-diazepana-7(1,3)-benzenacyclotetradecaphane-12-yl 3,4,5-trimethoxybenzoate]
> 500 nM	COc1cc(C(=O)O[C@H]2CCCOc3cc(cc(OC)c3OC)C(=O)NCCCN3CCCN(CC2)CC3)cc(OC)c1OC [Compound 9, (12S)-74,75-dimethoxy-6-oxo-8-oxa-5-aza-1(1,4)-diazepana-7(1,3)-benzenacyclotetradecaphane-12-yl 3,4,5-trimethoxybenzoate]
> 500 nM	COc1cc2cc(c1OC)OCCCC(O)CCN1CCCN(CCCOC2=O)CC1 (stereo not drawn) [Compound 38, 12-hydroxy-74,75-dimethoxy-5,8-dioxa-1(1,4)-diazepana-7(1,3)-benzenacyclotetradecaphan-6-one]
1 to 20 nM	COc1cc2cc(c1OC)OCCCC(OC(=O)c1c(F)ccc(C)c1Cl)CCN1CCCN(CCCOC2=O)CC1 (stereo not drawn) [Compound 79, 74,75-dimethoxy-6-oxo-5,8-dioxa-1(1,4)-diazepana-7(1,3)-benzenacyclotetradecaphane-12-yl 2-chloro-6-fluoro-3-methylbenzoate]
1 to 20 nM	CNC(=O)CCC(=O)OC1CCCOc2cc(cc(OC)c2OC)C(=O)OCCCN2CCCN(CC1)CC2 (stereo not drawn) [Compound 101, 74,75-dimethoxy-6-oxo-5,8-dioxa-1(1,4)-diazepana-7(1,3)-benzenacyclotetradecaphane-12-yl 4-(methylamino)-4-oxobutanoate]
20 to 500 nM	COc1cc(C(=O)O[C@H]2CCCOc3cc(cc(Cl)c3Cl)C(=O)OCCCN3CCCN(CC2)CC3)cc(OC)c1OC [Compound 22, (12S)-74,75-dichloro-6-oxo-5,8-dioxa-1(1,4)-diazepana-7(1,3)-benzenacyclotetradecaphane-12-yl 3,4,5-trimethoxybenzoate]
1 to 20 nM	COc1cc2cc(c1OC)OCCCC(OC(=O)C1CCC(C(F)(F)F)CC1)CCN1CCCN(CCCOC2=O)CC1 (stereo not drawn) [Compound 106, 74,75-dimethoxy-6-oxo-5,8-dioxa-1(1,4)-diazepana-7(1,3)-benzenacyclotetradecaphane-12-yl 4-(trifluoromethyl)cyclohexane-1-carboxylate]
1 to 20 nM	COc1cc2cc(c1OC)OCCCC(OC(=O)c1cccc(C(F)(F)F)c1)CCN1CCCN(CCCOC2=O)CC1 (stereo not drawn) [Compound 44, 74,75-dimethoxy-6-oxo-5,8-dioxa-1(1,4)-diazepana-7(1,3)-benzenacyclotetradecaphane-12-yl 3-(trifluoromethyl)benzoate]
1 to 20 nM	COc1cc2cc(c1OC)OCCCC(OC(=O)CCC#N)CCN1CCCN(CCCOC2=O)CC1 (stereo not drawn) [Compound 95, 74,75-dimethoxy-6-oxo-5,8-dioxa-1(1,4)-diazepana-7(1,3)-benzenacyclotetradecaphane-12-yl 3-cyanopropanoate]
1 to 20 nM	COc1cc(C(=O)OC2CCCOc3cc(cc(Cl)c3C#N)C(=O)NCCCN3CCCN(CC2)CC3)cc(OC)c1OC (stereo not drawn) [Compound 123, 75-chloro-74-cyano-6-oxo-8-oxa-5-aza-1(1,4)-diazepana-7(1,3)-benzenacyclotetradecaphane-12-yl 3,4,5-trimethoxybenzoate]
> 500 nM	COc1cc(C(=O)O[C@H]2CCCOc3cc(cc(OC)c3OC)C(=O)N(C)CCCN3CCCN(CC2)CC3)cc(OC)c1OC [Compound 12, (12S)-74,75-dimethoxy-5-methyl-6-oxo-8-oxa-5-aza-1(1,4)-diazepana-7(1,3)-benzenacyclotetradecaphane-12-yl 3,4,5-trimethoxybenzoate]
1 to 20 nM	COc1cc2cc(c1OC)OCCCC(OC(=O)c1cccc(C#N)c1)CCN1CCCN(CCCOC2=O)CC1 (stereo not drawn) [Compound 73, 74,75-dimethoxy-6-oxo-5,8-dioxa-1(1,4)-diazepana-7(1,3)-benzenacyclotetradecaphane-12-yl 3-cyanobenzoate]
1 to 20 nM	COc1cc2cc(c1OC)OCCCC(OC(=O)c1ccc(F)c(Cl)c1)CCN1CCCN(CCCOC2=O)CC1 (stereo not drawn) [Compound 27, 74,75-dimethoxy-6-oxo-5,8-dioxa-1(1,4)-diazepana-7(1,3)-benzenacyclotetradecaphane-12-yl 3-chloro-4-fluorobenzoate]
20 to 500 nM	COc1cc2cc(c1OC)OCCCC(OC(=O)c1cc(C)cc(C(F)(F)F)c1)CCN1CCCN(CCCOC2=O)CC1 (stereo not drawn) [Compound 49, 74,75-dimethoxy-6-oxo-5,8-dioxa-1(1,4)-diazepana-7(1,3)-benzenacyclotetradecaphane-12-yl 3-methyl-5-(trifluoromethyl)benzoate]
20 to 500 nM	COc1cc(C(=O)O[C@@H]2CCCn3ncc4c(Cl)cc(cc43)C(=O)NCCCN3CCCN(CC2)CC3)cc(OC)c1OC [Compound 16, (10R)-14-chloro-2-oxo-11H-3-aza-1(6, 1)-indazola-7(1,4)-diazepanacyclotridecaphane-10-yl 3,4,5-trimethoxybenzoate]
1 to 20 nM	COc1cc2cc(c1OC)OCCCC(OC(=O)c1ccc(F)c(C(F)(F)F)c1)CCN1CCCN(CCCOC2=O)CC1 (stereo not drawn) [Compound 81, 74,75-dimethoxy-6-oxo-5,8-dioxa-1(1,4)-diazepana-7(1,3)-benzenacyclotetradecaphane-12-yl 4-fluoro-3-(trifluoromethyl)benzoate]
1 to 20 nM	COc1ccc(C(=O)OC2CCCOc3cc(cc(OC)c3OC)C(=O)OCCCN3CCCN(CC2)CC3)c(F)c1 (stereo not drawn) [Compound 50, 74,75-dimethoxy-6-oxo-5,8-dioxa-1(1,4)-diazepana-7(1,3)-benzenacyclotetradecaphane-12-yl 2-fluoro-4-methoxybenzoate]
